According to the supplement of paper PMC10307832:

Tests used:
Assay in all cases: relative viability (nuclei count vs DMSO), 5 days (fraction); higher = more cells survive
[1] = compound: COc1cc([C@@H]2c3cc4c(cc3[C@@H](O[C@@H]3O[C@@H]5CO[C@@H](C)O[C@H]5[C@H](O)[C@H]3O)[C@H]3COC(=O)[C@H]23)OCO4)cc(OC)c1O [Etoposide] + CCNC(=O)c1noc(-c2cc(C(C)C)c(O)cc2O)c1-c1ccc(CN2CCOCC2)cc1 [Luminespib] (partner 0.01 µM)
How it was run: (§1)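 Relative viability equals treated-well nuclei counts divided by vehicle-well nuclei counts. Counts came from 4× images of lung cancer cell lines grown in 1536-well plates for 5 days after pin-tool dosing on the day after seeding. Dosing used one drug alone or a fixed anchor-drug dose plus five library-drug doses (not always all listed) in √10 steps, and values are medians of duplicate plates.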

[2] = compound: COc1cc([C@@H]2c3cc4c(cc3[C@@H](O[C@@H]3O[C@@H]5CO[C@@H](C)O[C@H]5[C@H](O)[C@H]3O)[C@H]3COC(=O)[C@H]23)OCO4)cc(OC)c1O [Etoposide] + NC(=O)Nc1cc(-c2cccc(F)c2)sc1C(=O)N[C@H]1CCCNC1 [AZD7762] (partner 0.2 µM)
How it was run: as §1

[3] = compound: CC1=C(N=C(N=C1N)[C@H](CC(=O)N)NC[C@@H](C(=O)N)N)C(=O)N[C@@H]([C@H](C2=CN=CN2)OC3C(C(C(C(O3)CO)O)O)OC4C(C(C(C(O4)CO)O)OC(=O)N)O)C(=O)N[C@H](C)[C@H]([C@H](C)C(=O)N[C@@H]([C@@H](C)O)C(=O)NCCC5=NC(=CS5)C6=NC(=CS6)C(=O)NCCC[S+](C)C)O [Bleomycin] + COc1cccc2cc(-c3nc([C@H]4CC[C@H](C(=O)O)CC4)n4ncnc(N)c34)[nH]c12 [OSI-027] (partner 0.5 µM); details: main component drawn
How it was run: as §1

[4] = compound: COc1cc([C@@H]2c3cc4c(cc3[C@@H](O[C@@H]3O[C@@H]5CO[C@@H](C)O[C@H]5[C@H](O)[C@H]3O)[C@H]3COC(=O)[C@H]23)OCO4)cc(OC)c1O [Etoposide] + CS(=O)(=O)CCNCc1ccc(-c2ccc3ncnc(Nc4ccc(OCc5cccc(F)c5)c(Cl)c4)c3c2)o1 [Lapatinib] (partner 2 µM)
How it was run: as §1

Row | Cell Line | relative viability ([1]; first compound 0.01 µM) | relative viability ([1]; first compound 0.03162 µM) | relative viability ([1]; first compound 0.1 µM) | relative viability ([1]; first compound 0.3162 µM) | relative viability ([1]; first compound 1 µM) | relative viability ([2]; first compound 0.01 µM) | relative viability ([2]; first compound 0.03162 µM) | relative viability ([2]; first compound 0.1 µM) | relative viability ([2]; first compound 0.3162 µM) | relative viability ([2]; first compound 1 µM) | relative viability ([3]; first compound 0.01 µM) | relative viability ([3]; first compound 0.03162 µM) | relative viability ([3]; first compound 0.1 µM) | relative viability ([3]; first compound 0.3162 µM) | relative viability ([3]; first compound 1 µM) | relative viability ([4]; first compound 0.01 µM) | relative viability ([4]; first compound 0.03162 µM) | relative viability ([4]; first compound 0.1 µM) | relative viability ([4]; first compound 0.3162 µM) | relative viability ([4]; first compound 1 µM)
1 | LOU-NH91 | 0.318 | 0.38 | 0.306 | 0.311 | 0.284 | 0.784 | 0.836 | 0.67 | 0.656 | 0.482 | 0.667 | 0.564 | 0.555 | 0.503 | 0.306 | 0.759 | 0.788 | 0.576 | 0.619 | 0.347
2 | NCI-H2085 | 0.34 | 0.514 | 0.451 | 0.338 | 0.265 | 0.831 | 0.905 | 0.803 | 0.911 | 0.453 | 0.832 | 0.761 | 0.574 | 0.317 | 0.44 | 0.777 | 0.73 | 0.534 | 0.599 | 0.372
3 | BEN | 0.235 | 0.583 |  | 0.206 | 0.245 | 0.828 | 0.818 |  | 0.665 | 0.606 | 0.284 | 0.299 | 0.286 | 0.243 | 0.288 | 0.81 | 0.733 |  | 0.663 | 0.458
4 | LK-2 | 0.206 | 0.181 | 0.154 | 0.195 | 0.159 | 0.395 | 0.659 | 0.255 | 0.319 | 0.2 | 0.192 | 0.202 | 0.177 | 0.167 | 0.162 | 0.949 | 1.23 | 0.566 | 0.555 | 0.217
5 | NCI-H596 | 1.01 | 0.883 | 0.986 | 0.771 | 0.681 | 0.923 | 1.21 | 0.662 | 1.3 | 0.705 | 0.48 | 0.561 | 0.512 | 0.304 | 0.278 | 0.94 | 1.03 |  | 1.08 | 0.625
6 | ABC-1 | 0.35 | 0.648 | 0.33 | 0.351 | 0.29 | 0.978 | 0.851 | 0.468 | 0.425 | 0.369 | 0.394 | 0.428 | 0.388 | 0.18 | 0.212 | 1.05 | 1.34 | 1.09 | 1.1 | 0.667
7 | NCI-H1666 | 0.949 | 0.906 | 0.77 | 0.399 | 0.406 | 0.852 | 0.99 | 0.814 | 0.583 | 0.532 | 0.678 | 0.671 | 0.636 | 0.515 | 0.408 | 0.616 | 0.692 | 0.371 | 0.305 | 0.28
8 | NCI-H1993 | 0.827 | 0.726 | 0.757 | 0.73 | 0.48 |  | 0.838 | 0.474 | 0.759 | 0.596 | 0.541 | 0.483 | 0.513 | 0.535 | 0.422 | 0.95 | 0.797 | 0.75 | 0.659 | 0.657
9 | NCI-H1975 | 0.34 | 0.199 | 0.125 | 0.242 | 0.199 | 0.702 | 0.804 | 0.508 | 0.658 | 0.443 | 0.566 | 0.638 | 0.435 | 0.153 | 0.132 | 0.857 | 1.04 | 0.739 | 0.528 | 0.214
10 | HCC-44 | 1.03 | 0.84 | 0.774 | 0.411 | 0.279 | 1.02 | 1.05 | 1.15 | 1.01 | 0.95 | 0.279 | 0.38 | 0.248 | 0.205 | 0.175 | 0.989 | 0.953 | 1.06 | 0.833 | 0.245
